Laboratory results from US5187157A, “Peptide boronic acid inhibitors of trypsin-like proteases” (Du Pont Merck Pharmaceutical Company, priority 1988, dated 1993).

Legend:
[1] = system: plasma; details: at 1 μM; Green et al.; cited from earlier work
[2] = system: normal human plasma; assay: Activated partial thromboplastin times (APTT), blood coagulation in vitro; assay type: biochemical; details: for Calc. Concentration 2 × APTT: approximate concentration required to increase APTT two fold
Protocol: (§1) The effectiveness of inhibitors in reactions in which they compete with natural substrates for target enzymes is measured in vitro in blood coagulation assays. Two different assays are used, the APTT (activated partial thromboplastin times) and PT (prothrombin times) assays. These assays mimic the blood clotting process in vivo. Blood coagulation occurs through either of two pathways, each consisting of a cascades of zymogen activation steps. The pathways are termed the intrinsic and the extrinsic pathways (see L. Lorand, Methods in Enzymology 45: 31-37 (1976). The intrinsic pathway is initiated by negatively charged surfaces in which plasma kallikrein, factor XII and factor […] are activated and then factors IX and X and prothrombin are activated in calcium dependent steps. Thrombin, the last protease in the cascade, hydrolyses fibrinogen to fibrin which results in clot formation. In the APTT assay, plasma components are activated by exposure to negatively charged surfaces and then clotting times are measured after calcium is added to the system. In the extrinsic pathway, tissue thromboplastin activates factor VII which then activates factor X leading to the activation of thrombin. These events are measured in the prothrombin times assay.
The effect of protease inhibitors on blood coagulation in vitro was determined by measuring their effects on two different clinical parameters, the activated partial thromboplastin times (APTT) and prothrombin times (PT). Reagents for each of these assays were supplied by General Diagnostics, Jessup MD. Stock solutions of inhibitors were prepared in […] HEPES buffer, pH 7.5, containing 0.10 M sodium chloride. For the APTT assay, the inhibitor solution (0.100 mL) was incubated with normal human plasma (0.100 mL) and automated APTT reagent (0.100 mL). After incubation for 5.0 min at 37°, calcium chloride (0.100 mL) was added and the clotting times, measured in seconds, was determined on a fibrameter. The effects of the varying concentrations of inhibitor on blood clotting times compared with the clotting times of controls run in the absence of inhibitor, are shown in Table 3.

[3] = target: T1, Human thrombin (Homo sapiens, UniProt P00734); assay: Inhibition of Thrombin (Esterase Activity); assay type: biochemical; details: inhibitor 5 nM; activity remaining 10 to 20 min after initiation
T1 construct: purchased R.Q.P. Laboratories, South Bend, IN Lot HT102
Protocol: In the Examples which follow, the hydrolytic activity of each enzyme is measured in both the presence and absence of inhibitor and the percent enzyme activity determined. […] A steady state is reached fairly rapidly and nears completion within 5 min. Activity is evaluated between 10-20 min after the components are mixed to insure that reaction components are at equilibrium. The lowest concentration of inhibitor tested is determined by the estimated concentration of enzyme. […] The maintenance of pseudo-first-order reaction conditions and the sensitivity of the respective assays sets the lowest limit level of inhibitor tested at 10 nM for kallikrein inhibitors and 5 nM for thrombin inhibitors.
A stock solution of thrombin was prepared in 0.010M PIPES Buffer, pH 6.0, containing 0.75 M sodium chloride. […] The initial concentration of substrate was 0.10 mM and the concentration of thrombin was 1.0 nM (based on weight).

[4] = system: normal human plasma; assay: Prothrombin times (PT), blood coagulation in vitro; assay type: biochemical; details: for Calc. Concentration 2 × XPT: approximate concentration required to increase PT two fold
Protocol: as §1
For PT assays, inhibitor solutions (0.100 mL) were incubated with normal human plasma (0.100 mL) for 2 min at 37°.

[5] = system: Sprague Dawley CD Rats; assay: In Vivo Inhibition of Croton Oil Induced Inflammation (ear swelling); details: Table 14; dose=100 μg, essentially the same conditions
Protocol: Two solutions were prepared, the first consisting of 5% croton oil, a known inflammatory agent, in an acetone carrier (Croton Solution) and the second consisting of 5% croton oil in an acetone carrier to which 10 mg/mL of a compound of the invention was added (Compound Solution). The Croton Solution (10 μL), or alternatively the Compound Solution (10 μL), was applied to the right ear of each animal (Sprague Dawley CD Rats, 130-140 g, supplied by Charles River Labs, Inc., Wilmington, MA). […] "SE" denotes standard error.

[6] = Stability of Inhibitors in Buffer (thrombin assay); details: for Percent Thrombin activity: 1.0 μM; for stability in phosphate buffer at pH 7.5 (inhibitory activity): phosphate buffer pH 7.5
Protocol: Samples of the inhibitors are removed at increasing time intervals and their ability to delay clotting is measured at each interval.
Inhibitors, each at a concentration of 1.0 μM, were incubated at room temperature in 0.20 M sodium phosphate buffer, pH 7.5, containing 0.20 M sodium chloride and 0.10% PEG.

[7] = Stability of Inhibitors in Human Plasma As Measured By APTT; assay type: in vitro ADME; details: 250 nM in APTT assay
Protocol: The stability of inhibitors in plasma was determined by their ability to inhibit blood coagulation. First, a stock solutions (1.0 μM) of the inhibitors to be tested in 25 mM HEPES buffer, pH 7.5, containing 0.10 M sodium chloride were diluted 50% with normal human plasma. The mixtures were made at 0°, then aliquots (0.200 mL) were removed and incubated for 2 min at 37°. An equal volume of automated APTT reagent was added and clotting times were measured as described in Examples 111-117. The final concentration of inhibitor during the clotting assays was 250 nM. Values for compounds E and F were determined simultaneously with the Control. Values for compounds A, B and C were obtained on a different day.

[8] = system: rats; details: Tremoli et al.; cited from earlier work
[9] = target: thrombin; details: literature; cited from earlier work
[10] = system: rabbit; details: rabbit model; Shaw et al.; cited from earlier work
[11] = system: plasma; details: 0.2-0.4 units of heparin per mL of plasma; cited from earlier work
[12] = system: plasma; assay: Heparin effect on plasma clotting times; assay type: biochemical; details: assuming molecular weight 15,000 and 150 units/mg
[13] = incubation in human plasma 0.5 h
[14] = incubation in human plasma 24 h

Molecule: CC1CNc2c(cccc2S(=O)(=O)N[C@@H](CCCNC(=N)N)C(=O)N2CC[C@@H](C)C[C@@H]2C(=O)O)C1 (stereo partly drawn) [(2R,4R)-4-methyl-1[N^2 -{(3-methyl-1,2,3,4-tetrahydro-8-quinolinyl)sulfonyl}-L-arginyl]-2-piperid inecarboxylic acid]
- increase of prothrombin times of plasma [1]: 2 fold

Molecule: CC(C)(C)OC(=O)NC(Cc1ccccc1)C(=O)N1CCCC1C(=O)NC(CCCN=C(N)N)B1OC2CC3CC(C3(C)C)C2(C)O1.O=S(=O)(O)c1ccccc1 (stereo not drawn) [A, Boc-(D)Phe-Pro-boroArg-C10 H16.benzene sulfonic acid]
- Calc. Concentration 2 × APTT [2]: 230 nM
- Activated Partial Thromboplastin Times ([2]; inhibitor 125 nM): 36.6 s
- Activated Partial Thromboplastin Times ([2]; inhibitor 200 nM): 40.2 s
- Activated Partial Thromboplastin Times ([2]; inhibitor 250 nM): 81.2 s
- Activated Partial Thromboplastin Times ([2]; inhibitor 300 nM): 113.3 s
- Activated Partial Thromboplastin Times ([2]; inhibitor 350 nM): 128.7 s
- Percent Activity [3]: 3%
- Calc. Concentration 2 × XPT [4]: 800 nM
- Prothrombin Times ([4]; inhibitor 12.5 nM): 16.4 s
- Prothrombin Times ([4]; inhibitor 250 nM): 17.1 s
- Prothrombin Times ([4]; inhibitor 500 nM): 21.5 s
- Prothrombin Times ([4]; inhibitor 750 nM): 26.7 s
- Prothrombin Times ([4]; inhibitor 875 nM): 40.1 s
- Prothrombin Times ([4]; inhibitor 1000 nM): > 200 s
- Percent Inhibition [5]: 59%
- Percent Thrombin activity ([6]; 0 hr in 0.20 M sodium phosphate buffer pH 7.5, room temperature): 3.3%
- Percent Thrombin activity ([6]; 6.5 hr in 0.20 M sodium phosphate buffer pH 7.5, room temperature): 1.6%
- Percent Thrombin activity ([6]; 24 hr in 0.20 M sodium phosphate buffer pH 7.5, room temperature): 0.8%
- stability in phosphate buffer at pH 7.5 (inhibitory activity) [6]: little loss of inhibitor activity
- Clotting Time ([7]; incubation in human plasma 0 h): 81.2 s
- Clotting Time [7, 13]: 84.7 s
- Clotting Time ([7]; incubation in human plasma 1 h): 79.7 s
- Clotting Time ([7]; incubation in human plasma 2 h): 86.7 s
- Clotting Time ([7]; incubation in human plasma 4 h): 98.2 s
- Clotting Time [7, 14]: 92.2 s

Molecule: CC(C)(C)OC(=O)N[C@H](Cc1ccccc1)C(=O)N1CCC[C@H]1C(=O)N[C@H](C=O)CCCNC(=N)N [Boc-(D)Phe-Pro-Arg-H]
- size of venous thrombosis [8]: reduces the size of venous thrombosis

Molecule: Br.CC(C)(C)OC(=O)NC(Cc1ccccc1)C(=O)N1CCCC1C(=O)NC(CCCSC(=N)N)B1OC2CC3CC(C3(C)C)C2(C)O1 (stereo not drawn) [C, Boc-(D)Phe-Pro-boroIrg-C10 H16.HBr]
- Calc. Concentration 2 × APTT [2]: 200 nM
- Activated Partial Thromboplastin Times ([2]; inhibitor 62.5 nM): 39.2 s
- Activated Partial Thromboplastin Times ([2]; inhibitor 125 nM): 46.9 s
- Activated Partial Thromboplastin Times ([2]; inhibitor 200 nM): 67 s
- Activated Partial Thromboplastin Times ([2]; inhibitor 250 nM): 160 s
- Activated Partial Thromboplastin Times ([2]; inhibitor 300 nM): 197.8 s
- Activated Partial Thromboplastin Times ([2]; inhibitor 350 nM): 301.8 s
- Percent Activity [3]: 3%
- Calc. Concentration 2 × XPT [4]: 650 nM
- Prothrombin Times ([4]; inhibitor 12.5 nM): 16.8 s
- Prothrombin Times ([4]; inhibitor 250 nM): 20.8 s
- Prothrombin Times ([4]; inhibitor 500 nM): 27.2 s
- Prothrombin Times ([4]; inhibitor 750 nM): 44 s
- Prothrombin Times ([4]; inhibitor 1000 nM): 152.7 s
- Percent Inhibition [5]: 76%
- stability in phosphate buffer at pH 7.5 (inhibitory activity) [6]: little loss of inhibitor activity
- Clotting Time ([7]; incubation in human plasma 0 h): 203.2 s
- Clotting Time [7, 13]: 207.2 s
- Clotting Time ([7]; incubation in human plasma 1 h): 214.2 s
- Clotting Time ([7]; incubation in human plasma 2 h): 203.7 s
- Clotting Time ([7]; incubation in human plasma 4 h): 209.7 s
- Clotting Time [7, 14]: 248.7 s

Molecule: N=C(N)NCCC[C@@H](C=O)NC(=O)[C@@H]1CCCN1C(=O)[C@H](N)Cc1ccccc1 [H-(D)Phe-Pro-Arg-H]
- Ki [9]: 75 nM

Molecule: N=C(N)NCCC[C@H](NC(=O)[C@@H]1CCCN1C(=O)[C@H](N)Cc1ccccc1)C(=O)CCl [H-(D)Phe-Pro-ArgCH2 Cl]
- prevention of coronary thrombosis [10]: effective in the prevention of coronary thrombosis

Molecule: heparin
- increase of clotting times [11]: 2-2.5 fold
- molar concentration increasing clotting times 2-2.5 fold [12]: 86 to 170 nM
